ChEMBL document CHEMBL1201862, “PubChem BioAssay data set” (2004)
Active and inactive are the calls of the source.

Tests used:
Large T antigen = Large T antigen (Simian virus 40, UniProt P03070); format: functional, Betapolyomavirus macacae;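 further: Confirmatory-stage PubChem screen for compounds that inhibit SV40 T antigen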
[1] = biological target: Phosphoethanolamine/phosphocholine phosphatase (Homo sapiens, UniProt Q8TCT1); assay: SAR assay for compounds that inhibit PHOSPHO1. [Related pubchem assays (depositor defined):AID1545, AID1565, AID1574]
[2] = biological target: T1, Mannose-6-phosphate isomerase (Homo sapiens, UniProt P34949); assay: phosphomannose isomerase inhibition – biochemical, fluorescence intensity, confirmation (AID 1535)
T1 sequence (P34949 whole entry): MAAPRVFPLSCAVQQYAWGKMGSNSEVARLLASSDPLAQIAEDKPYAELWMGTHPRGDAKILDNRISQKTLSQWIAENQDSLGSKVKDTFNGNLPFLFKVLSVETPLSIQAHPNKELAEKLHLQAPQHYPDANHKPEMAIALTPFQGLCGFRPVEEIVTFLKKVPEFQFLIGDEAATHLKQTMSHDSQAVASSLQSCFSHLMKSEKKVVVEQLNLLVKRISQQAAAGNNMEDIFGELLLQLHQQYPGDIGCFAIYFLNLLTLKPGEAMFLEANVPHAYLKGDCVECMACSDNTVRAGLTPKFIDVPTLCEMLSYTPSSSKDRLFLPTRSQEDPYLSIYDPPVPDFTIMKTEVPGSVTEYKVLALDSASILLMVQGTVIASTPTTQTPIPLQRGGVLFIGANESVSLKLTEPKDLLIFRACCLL

[3] = biological target: T2, Alkaline phosphatase, tissue-nonspecific isozyme (Homo sapiens, UniProt P05186); assay: potency against alkaline phosphatase TNAP – biochemical, luminescent, dose response, SAR follow-up (AID 1056)
T2 sequence (P05186 whole entry): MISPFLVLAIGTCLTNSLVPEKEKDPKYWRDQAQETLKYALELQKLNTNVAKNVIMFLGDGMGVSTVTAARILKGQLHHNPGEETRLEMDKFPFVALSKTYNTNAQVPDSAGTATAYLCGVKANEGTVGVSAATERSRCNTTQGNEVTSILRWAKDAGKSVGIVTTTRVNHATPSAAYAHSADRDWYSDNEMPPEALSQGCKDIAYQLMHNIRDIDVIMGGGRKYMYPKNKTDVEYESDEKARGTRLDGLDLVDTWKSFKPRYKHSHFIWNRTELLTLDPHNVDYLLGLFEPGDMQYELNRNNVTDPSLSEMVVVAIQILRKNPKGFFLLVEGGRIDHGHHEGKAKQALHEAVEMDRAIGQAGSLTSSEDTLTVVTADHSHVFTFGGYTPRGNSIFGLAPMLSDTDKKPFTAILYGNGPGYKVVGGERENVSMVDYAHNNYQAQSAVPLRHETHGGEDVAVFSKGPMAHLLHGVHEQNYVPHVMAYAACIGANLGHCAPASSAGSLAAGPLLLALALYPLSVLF

[4] = biological target: T1, Mannose-6-phosphate isomerase; assay: MPI inhibition at elevated mannose 6-phosphate – biochemical, fluorescence intensity, high mannose 6-phosphate, primary screen (AID 1220)
[5] = Counterscreen for IDE inhibitors: Luminescence-based cell-based high throughput dose response assay to identify compounds that are cytotoxic to HEK cells. [Related pubchem assays: 434962 (Primary screen (IDE inhibitors in singlicate)), 449730 (Counterscreen (Cytotoxicity in triplicate)), 435028 (Confirmation (IDE inhibitors in triplicate)) …; format: functional; details: HEK293
[6] = Trypanosoma cruzi growth suppression in host cells – NIH3T3 host cells, beta-gal luminescence, confirmation (AID 2044); format: functional, cell-based;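 further: intracellular parasites grown in NIH/3T3 mouse fibroblasts as host cells; luminescent beta-galactosidase reporter signal from transgenic T. cruzi replicating inside host cells; inhibitors lower the luminescence signal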
Aspartyl aminopeptidase = biological target: T3, Aspartyl aminopeptidase (Plasmodium falciparum 3D7, UniProt Q8I2J3)
T3 sequence (Q8I2J3 whole entry): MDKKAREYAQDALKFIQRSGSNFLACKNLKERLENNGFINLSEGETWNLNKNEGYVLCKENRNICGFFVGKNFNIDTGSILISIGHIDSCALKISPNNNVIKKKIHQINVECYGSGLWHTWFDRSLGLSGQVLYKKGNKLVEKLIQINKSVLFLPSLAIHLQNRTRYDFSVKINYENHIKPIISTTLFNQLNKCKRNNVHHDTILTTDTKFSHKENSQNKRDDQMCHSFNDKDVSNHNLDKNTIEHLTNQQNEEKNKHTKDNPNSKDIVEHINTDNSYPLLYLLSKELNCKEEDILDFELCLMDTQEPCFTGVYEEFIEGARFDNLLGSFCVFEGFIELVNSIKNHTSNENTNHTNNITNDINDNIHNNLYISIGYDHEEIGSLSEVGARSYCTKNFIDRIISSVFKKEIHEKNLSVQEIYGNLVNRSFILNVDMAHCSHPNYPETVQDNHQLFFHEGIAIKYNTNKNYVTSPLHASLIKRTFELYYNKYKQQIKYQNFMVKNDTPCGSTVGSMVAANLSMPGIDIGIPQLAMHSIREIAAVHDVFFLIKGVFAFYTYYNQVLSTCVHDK

Procathepsin L = Procathepsin L (Homo sapiens, UniProt P07711)
Insulin-degrading enzyme = biological target: T4, Insulin-degrading enzyme (Homo sapiens, UniProt P14735); assay: Dose Response: Fluorescence polarization-based cell-based high throughput dose response assay for inhibitors of insulin-degrading enzyme (IDE). [Related pubchem assays: 434962 (Primary screen (IDE inhibitors in singlicate)), 449730 (Counterscreen (Cytotoxicity in triplicate)), 435028 (Confirmation (IDE inhibitors in triplicate)), 434984 (Summary …; format: functional
T4 sequence (P14735 whole entry): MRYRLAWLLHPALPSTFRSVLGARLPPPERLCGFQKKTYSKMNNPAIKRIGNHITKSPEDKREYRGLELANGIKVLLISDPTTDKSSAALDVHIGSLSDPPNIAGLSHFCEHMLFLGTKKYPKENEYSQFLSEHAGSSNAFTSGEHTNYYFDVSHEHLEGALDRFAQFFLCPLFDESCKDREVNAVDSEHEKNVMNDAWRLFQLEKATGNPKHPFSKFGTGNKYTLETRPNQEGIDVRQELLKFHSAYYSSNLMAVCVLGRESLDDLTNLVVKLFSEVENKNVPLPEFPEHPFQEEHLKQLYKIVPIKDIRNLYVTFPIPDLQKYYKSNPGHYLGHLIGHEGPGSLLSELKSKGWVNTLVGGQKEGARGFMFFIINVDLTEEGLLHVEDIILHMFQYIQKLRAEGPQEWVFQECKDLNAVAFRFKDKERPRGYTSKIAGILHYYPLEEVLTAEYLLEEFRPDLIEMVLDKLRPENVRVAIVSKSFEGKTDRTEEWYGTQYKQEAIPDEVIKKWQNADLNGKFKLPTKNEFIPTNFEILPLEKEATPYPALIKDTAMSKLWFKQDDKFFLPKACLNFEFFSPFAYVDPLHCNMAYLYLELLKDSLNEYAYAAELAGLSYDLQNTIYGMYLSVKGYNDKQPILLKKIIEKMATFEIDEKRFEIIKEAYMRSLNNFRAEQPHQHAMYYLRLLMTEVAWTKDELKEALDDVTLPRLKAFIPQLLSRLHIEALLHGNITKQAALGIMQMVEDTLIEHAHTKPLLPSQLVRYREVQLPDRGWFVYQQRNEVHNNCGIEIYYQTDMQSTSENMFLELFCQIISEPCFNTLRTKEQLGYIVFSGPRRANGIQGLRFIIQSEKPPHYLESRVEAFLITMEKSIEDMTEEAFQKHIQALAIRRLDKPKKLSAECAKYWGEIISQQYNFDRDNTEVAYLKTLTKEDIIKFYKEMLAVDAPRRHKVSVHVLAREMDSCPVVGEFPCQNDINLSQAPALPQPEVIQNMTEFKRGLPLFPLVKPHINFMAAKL

[7] = biological target: Eukaryotic translation initiation factor 4E (Mus musculus, UniProt P63073); assay: blockers of eIF4G binding by eIF4E – biochemical, TR-FRET, dose response (AID 855); format: functional;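 further: potency for disrupting eIF4E binding to eIF4GI seen as loss of FRET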
[8] = NIH3T3 cell viability loss – ATP luminescence, mouse fibroblasts, counter-screen, dose response (AID 2010); format: functional, cell-based;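 further: cells exposed to compound for about 90 hours before reading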
Phosphomannomutase 2 = biological target: T5, Phosphomannomutase 2 (Homo sapiens, UniProt O15305); assay: Counter screen SAR assay for PMM2 inhibitors via a fluorescence intensity assay. [Related pubchem assays (depositor defined):AID1545, AID1574]
T5 sequence (O15305 whole entry): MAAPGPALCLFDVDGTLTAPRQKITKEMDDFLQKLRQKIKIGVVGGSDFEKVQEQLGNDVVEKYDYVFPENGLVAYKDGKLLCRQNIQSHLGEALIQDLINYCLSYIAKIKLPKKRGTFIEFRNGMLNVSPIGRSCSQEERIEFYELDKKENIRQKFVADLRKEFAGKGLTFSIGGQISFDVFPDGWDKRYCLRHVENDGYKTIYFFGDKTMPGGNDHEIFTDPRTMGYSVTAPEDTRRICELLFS

[9] = biological target: T1, Mannose-6-phosphate isomerase; assay: MPI enzyme activity inhibition – biochemical, fluorescence intensity, coupled assay, primary screen (AID 1209)

Phosphoethanolamine/phosphocholine phosphatase, sequence (Q8TCT1 whole entry): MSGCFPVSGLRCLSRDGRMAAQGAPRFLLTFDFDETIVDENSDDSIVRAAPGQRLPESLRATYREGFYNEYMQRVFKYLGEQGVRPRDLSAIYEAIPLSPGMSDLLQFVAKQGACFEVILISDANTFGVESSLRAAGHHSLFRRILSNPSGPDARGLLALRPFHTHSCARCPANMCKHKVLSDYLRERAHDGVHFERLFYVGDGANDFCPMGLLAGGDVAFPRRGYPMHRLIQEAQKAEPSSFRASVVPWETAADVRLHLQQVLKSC
Large T antigen, sequence (P03070 whole entry): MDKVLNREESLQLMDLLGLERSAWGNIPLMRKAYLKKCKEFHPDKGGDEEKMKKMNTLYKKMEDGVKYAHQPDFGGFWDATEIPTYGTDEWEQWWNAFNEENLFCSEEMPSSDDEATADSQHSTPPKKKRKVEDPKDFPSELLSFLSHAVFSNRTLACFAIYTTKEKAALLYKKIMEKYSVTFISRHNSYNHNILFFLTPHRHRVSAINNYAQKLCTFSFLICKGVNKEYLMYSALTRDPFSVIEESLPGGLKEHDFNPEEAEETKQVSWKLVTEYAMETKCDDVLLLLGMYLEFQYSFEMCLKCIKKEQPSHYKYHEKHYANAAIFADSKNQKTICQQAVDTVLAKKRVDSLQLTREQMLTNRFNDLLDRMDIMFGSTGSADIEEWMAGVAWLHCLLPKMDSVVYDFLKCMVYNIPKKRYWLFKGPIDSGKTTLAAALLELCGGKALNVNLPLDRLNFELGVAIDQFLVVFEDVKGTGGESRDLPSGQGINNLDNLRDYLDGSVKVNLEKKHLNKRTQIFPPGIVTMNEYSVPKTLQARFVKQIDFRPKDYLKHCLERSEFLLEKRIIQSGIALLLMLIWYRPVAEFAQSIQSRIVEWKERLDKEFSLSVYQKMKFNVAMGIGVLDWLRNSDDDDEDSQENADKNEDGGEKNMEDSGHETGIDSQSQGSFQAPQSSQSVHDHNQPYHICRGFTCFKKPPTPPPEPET
Eukaryotic translation initiation factor 4E, sequence (P63073 whole entry): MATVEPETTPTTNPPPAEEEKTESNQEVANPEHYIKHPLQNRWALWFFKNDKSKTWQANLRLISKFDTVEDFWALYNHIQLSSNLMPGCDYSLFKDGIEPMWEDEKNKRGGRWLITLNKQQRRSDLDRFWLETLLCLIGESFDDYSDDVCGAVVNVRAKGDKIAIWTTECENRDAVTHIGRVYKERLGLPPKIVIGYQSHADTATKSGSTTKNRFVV
Procathepsin L, sequence (P07711 whole entry): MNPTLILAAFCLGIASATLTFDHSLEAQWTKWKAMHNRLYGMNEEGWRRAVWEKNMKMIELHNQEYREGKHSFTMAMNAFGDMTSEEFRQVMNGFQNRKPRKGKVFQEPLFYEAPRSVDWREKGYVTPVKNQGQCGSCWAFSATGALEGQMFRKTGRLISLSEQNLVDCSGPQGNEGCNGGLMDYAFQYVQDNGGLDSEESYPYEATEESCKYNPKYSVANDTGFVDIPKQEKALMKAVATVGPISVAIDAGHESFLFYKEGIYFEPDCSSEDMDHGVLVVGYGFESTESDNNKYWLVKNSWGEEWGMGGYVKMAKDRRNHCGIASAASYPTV

With `Cc1ccc(-n2sc3ccccc3c2=O)cc1S(=O)(=O)N1CCCCC1` the IC50 (Large T antigen) was 26.1 µM (active), the IC50 [1] was 1.84 µM (inactive) and the IC50 [2] was 3.06 µM (active). For the same compound, the IC50 [3] was > 100 µM (inactive), the IC50 [4] was > 50 µM (not active) and the IC50 [5] was 10.5 µM (not active). For the same compound, the EC50 [6] was 0.89 µM (active), the IC50 (Aspartyl aminopeptidase) was 4.28 µM (active) and the IC50 (Procathepsin L) was > 59.6 µM (not active). The IC50 (Insulin-degrading enzyme) was 4.05 µM (active), the IC50 [7] was 1.93 µM (active) and the EC50 [8] was > 60 µM (not active). For the same compound, the IC50 (Phosphomannomutase 2) was 14.6 µM (active) and the IC50 [9] was > 50 µM (not active).
